This is an account of results in US20260308186A1, “STAT DEGRADERS AND USES THEREOF” (Recludix Pharma, Inc., priority 2023, published 2026).

One assay concerns the target T1, pSTAT3 (Homo sapiens, UniProt P40763).
T1 construct: pY705-STAT3 MSD read-out
Put plainly: MSD-pSTAT-PBMC Assay, pSTAT3 (IL-6 stimulated PBMC). The class given is cell-based. The text has this: Cryopreserved Peripheral Blood Mononuclear Cells (PBMC) are from AllCells. Recombinant Human IL-4 and IL-6 are from Peprotech. Mouse monoclonal anti-STAT3 antibody, rabbit monoclonal anti-pY705-STAT3 antibody, rabbit monoclonal Anti-pY641-STAT6 antibody, and lysis buffer are from Cell Signaling Technology (CST). Mouse monoclonal anti-STAT6 antibody is from BioLegend. Assay plates, blocker, and anti-rabbit secondary antibody are from Meso Scale Discovery (MSD).
Cryopreserved PBMCs were thawed out and allowed to recover overnight in IMDM+10% heat-inactivated FBS prior to plating 50,000 (STAT3) or 25,000 (STAT6) cells per well in 96-well U-bottom tissue culture plates. Cells were treated with compound for 3 hrs. then stimulated with 10 ng/mL IL-6 (STAT3) or 1 ng/mL IL-4 (STAT6) for 10 min. Cells were then spun down and washed with ice-cold PBS prior to lysing the cell pellet with 1× lysis buffer (CST) with 1×HALT protease and phosphatase inhibitor cocktail (Thermo). Lysates were transferred to and incubated overnight at 4° C. with shaking in QuickPlex 96-well high bind assay plates (MSD) pre-coated overnight with 30 μL per well of 0.6 μg/mL mouse monoclonal anti-STAT3 antibody (STAT3) or 2 μg/mL mouse monoclonal anti-STAT6 antibody (STAT6) in 1×PBS, and pre-blocked for 1 hour with 3% Blocker-A (MSD). Captured protein in the assay plates were then washed and probed with 25 μL per well of 0.25 μg/ml rabbit monoclonal anti-pY705-STAT3 antibody (STAT3) or 0.18 μg/ml rabbit monoclonal Anti-pY641-STAT6 antibody (STAT6) in 1% Blocker-A for 1 hour at room temperature with shaking, then washed and probed with 25 ul per well of 1 ug/ml Sulfo-TAG Labeled Goat Anti-Rabbit Antibody (MSD) in 1% Blocker-A for 1 hour at room temperature with shaking. Assay plates were then washed and 150 μL of 1× Read Buffer-T (MSD) was added to each well prior to reading on an SQ120 MSD Plate Reader. Assay signal from each sample was subtracted by the signal from unstimulated control wells and normalized to DMSO control wells. IC50 values were calculated using Graph Pad Prism Dose-Response Nonlinear Regression with variable slope. For both pSTAT3 and pSTAT6 A=≤100 nM; B=>100-1000 nM; C=>1000-3000 nM; and D=>3 μM.

In the next assay the target is T2, pSTAT6 (Homo sapiens, UniProt P42226).
T2 construct: pY641-STAT6 MSD read-out
T2 sequence (P42226 1-847): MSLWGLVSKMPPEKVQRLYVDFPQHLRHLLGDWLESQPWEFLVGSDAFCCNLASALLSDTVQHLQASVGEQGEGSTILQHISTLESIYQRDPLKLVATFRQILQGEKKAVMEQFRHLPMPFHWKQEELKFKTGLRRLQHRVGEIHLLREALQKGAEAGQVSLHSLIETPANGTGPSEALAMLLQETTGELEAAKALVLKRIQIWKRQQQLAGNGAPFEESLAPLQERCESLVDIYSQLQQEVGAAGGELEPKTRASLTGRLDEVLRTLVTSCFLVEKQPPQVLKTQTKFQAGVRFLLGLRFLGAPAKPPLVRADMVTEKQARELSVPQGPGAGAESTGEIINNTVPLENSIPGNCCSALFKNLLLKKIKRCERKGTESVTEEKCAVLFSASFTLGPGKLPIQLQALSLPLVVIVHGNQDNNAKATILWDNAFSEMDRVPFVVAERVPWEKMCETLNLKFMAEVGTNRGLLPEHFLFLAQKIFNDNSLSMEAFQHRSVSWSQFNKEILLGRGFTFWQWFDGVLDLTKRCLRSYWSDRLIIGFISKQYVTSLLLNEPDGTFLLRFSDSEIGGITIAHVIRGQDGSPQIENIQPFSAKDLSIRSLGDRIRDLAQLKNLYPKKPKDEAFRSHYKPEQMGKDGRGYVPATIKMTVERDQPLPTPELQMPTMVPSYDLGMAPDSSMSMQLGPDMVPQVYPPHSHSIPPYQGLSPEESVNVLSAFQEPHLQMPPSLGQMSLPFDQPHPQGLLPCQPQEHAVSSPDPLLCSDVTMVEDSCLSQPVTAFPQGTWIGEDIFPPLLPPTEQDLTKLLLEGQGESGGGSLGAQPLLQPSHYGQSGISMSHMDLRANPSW
Put plainly: MSD-pSTAT-PBMC Assay, pSTAT6 (IL-4 stimulated PBMC). The class given is cell-based. The procedure, abridged: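 Human PBMC were recovered overnight, treated 3 h with compound, then stimulated for 10 min with 10 ng/mL IL-6 (pSTAT3) or 1 ng/mL IL-4 (pSTAT6). Lysates were read by MSD sandwich immunoassay, with total STAT capture and pY705-STAT3 or pY641-STAT6 detection. Signal minus unstimulated wells was normalized to DMSO, and IC50 came from a variable-slope fit.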

The mark [1] stands for this setting: read-out: pSTAT3 IC50, compound 3 hrs, then 10 ng/mL IL-6 for 10 min, pY705-STAT3.
Setting [2] is: read-out: pSTAT6 IC50, compound 3 hrs, then 1 ng/mL IL-4 for 10 min, pY641-STAT6.

Each structure is given as a SMILES string. Where two headings read alike, the source gives them in different places.

T1 sequence (P40763 whole entry): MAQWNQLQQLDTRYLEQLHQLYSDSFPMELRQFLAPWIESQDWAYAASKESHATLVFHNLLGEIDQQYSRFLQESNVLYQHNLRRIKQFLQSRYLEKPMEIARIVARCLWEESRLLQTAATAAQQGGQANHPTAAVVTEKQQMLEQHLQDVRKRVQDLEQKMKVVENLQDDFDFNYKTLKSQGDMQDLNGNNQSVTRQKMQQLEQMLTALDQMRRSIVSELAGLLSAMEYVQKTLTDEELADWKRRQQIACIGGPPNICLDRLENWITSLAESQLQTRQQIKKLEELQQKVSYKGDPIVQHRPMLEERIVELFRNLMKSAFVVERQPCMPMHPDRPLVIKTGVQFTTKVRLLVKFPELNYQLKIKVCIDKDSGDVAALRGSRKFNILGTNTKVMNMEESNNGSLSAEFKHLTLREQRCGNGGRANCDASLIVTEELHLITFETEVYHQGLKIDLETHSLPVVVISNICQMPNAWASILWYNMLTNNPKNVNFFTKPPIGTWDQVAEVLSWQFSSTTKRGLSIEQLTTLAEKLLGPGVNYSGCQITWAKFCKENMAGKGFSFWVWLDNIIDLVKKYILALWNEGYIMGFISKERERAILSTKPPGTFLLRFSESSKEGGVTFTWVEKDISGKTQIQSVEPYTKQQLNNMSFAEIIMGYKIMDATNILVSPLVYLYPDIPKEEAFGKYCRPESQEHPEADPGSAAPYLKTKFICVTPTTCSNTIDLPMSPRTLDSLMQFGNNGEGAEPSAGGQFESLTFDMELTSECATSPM

As to `CN(C(=O)[C@@H]1CC[C@@H]2CCN(C(=O)CCCCCC#Cc3cccc4c3CN(C3CCC(=O)NC3=O)C4=O)C[C@H](NC(=O)c3cc4cc(C(F)(F)P(=O)(OCOC(=O)C(C)(C)C)OCOC(=O)C(C)(C)C)ccc4[nH]3)C(=O)N21)c1ccccc1` (stereo partly drawn) [Compound 2, ((((2-(((5S,8S,10aR)-3-(8-(2-(2,6-Dioxopiperidin-3-yl)-1-oxoisoindolin-4-yl)oct-7-ynoyl)-8-(methyl(phenyl)carbamoyl)-6-oxodecahydropyrrolo[1,2-a][1,5]diazocin-5-yl)carbamoyl)-1H-indol-5-yl)difluoromethyl)phosphoryl)bis(oxy))bis(methylene) bis(2,2-dimethylpropanoate)], the IC50 at pSTAT3 (setting [1]) and at pSTAT6 (setting [2]) was 1 to 3 µM throughout.
In the case of `CC(=O)N1CC[C@H]2CC[C@@H](C(=O)Nc3ccc(-c4ccc(NC(=O)CCCCCC#Cc5cccc6c5CN(C5CCC(=O)NC5=O)C6=O)cc4)cc3)N2C(=O)[C@@H](NC(=O)c2cc3cc(C(F)(F)P(=O)(OCOC(=O)C(C)(C)C)OCOC(=O)C(C)(C)C)ccc3[nH]2)C1` (stereo partly drawn) [Compound 4, ((((2-(((5S,8S,10aR)-3-acetyl-8-((4′-(8-(2-(2,6-dioxopiperidin-3-yl)-1-oxoisoindolin-4-yl)oct-7-ynamido)-[1,1′-biphenyl]-4-yl)carbamoyl)-6-oxodecahydropyrrolo[1,2-a][1,5]diazocin-5-yl)carbamoyl)-1H-indol-5-yl)difluoromethyl)phosphoryl)bis(oxy))bis(methylene) bis(2,2-dimethylpropanoate)], the IC50 at pSTAT3 (setting [1]) was 1 to 3 µM; at pSTAT6 (setting [2]), > 3 µM.
The matching figures for `CCCC(=O)SCCOP(=O)(OCCSC(=O)CCC)C(F)(F)c1ccc2ccc(C(=O)N[C@H]3CN(C(=O)c4n[nH]c5ccc(C)cc45)CC[C@H]4CC[C@@H](C(=O)NCCCCCCCCC(=O)N[C@H](C(=O)N5C[C@H](O)C[C@H]5C(=O)N[C@@H](C)c5ccc(-c6scnc6C)cc5)C(C)(C)C)N4C3=O)cc2c1` [Compound 8, S,S′-((((difluoro(7-(((5S,8S,10aR)-8-((9-(((S)-1-((2S,4R)-4-hydroxy-2-(((S)-1-(4-(4-methylthiazol-5-yl)phenyl)ethyl)carbamoyl)pyrrolidin-1-yl)-3,3-dimethyl-1-oxobutan-2-yl)amino)-9-oxononyl)carbamoyl)-3-(5-methyl-1H-indazole-3-carbonyl)-6-oxodecahydropyrrolo[1,2-a][1,5]diazocin-5-yl)carbamoyl)naphthalen-2-yl)methyl)phosphoryl)bis(oxy))bis(ethane-2,1-diyl)) dibutanethioate]: > 3 µM and 1 to 3 µM.
With `CCCC(=O)SCCOP(=O)(OCCSC(=O)CCC)C(F)(F)c1ccc2ccc(C(=O)N[C@H]3CN(C(=O)c4n[nH]c5ccc(C)cc45)CC[C@H]4CC[C@@H](C(=O)NCCCCCCC#Cc5cccc6c5CN(C5CCC(=O)NC5=O)C6=O)N4C3=O)cc2c1` (stereo partly drawn) [Compound 10, S,S′-(((((7-(((5S,8S,10aR)-8-((8-(2-(2,6-dioxopiperidin-3-yl)-1-oxoisoindolin-4-yl)oct-7-yn-1-yl)carbamoyl)-3-(5-methyl-1H-indazole-3-carbonyl)-6-oxodecahydropyrrolo[1,2-a][1,5]diazocin-5-yl)carbamoyl)naphthalen-2-yl)difluoromethyl)phosphoryl)bis(oxy))bis(ethane-2,1-diyl)) dibutanethioate], the IC50 on pSTAT3 (setting [1]) is > 3 µM; on pSTAT6 (setting [2]), < 0.1 µM.
`CCCC(=O)SCCOP(=O)(OCCSC(=O)CCC)C(F)(F)c1ccc2ccc(C(=O)N[C@H]3CN(C(=O)c4n[nH]c5ccc(C)cc45)CC[C@H]4CC[C@@H](C(=O)N(C)CCCCCCC#Cc5cccc6c5CN(C5CCC(=O)NC5=O)C6=O)N4C3=O)cc2c1` (stereo partly drawn) [Compound 12, S,S′-(((((7-(((5S,8S,10aR)-8-((8-(2-(2,6-dioxopiperidin-3-yl)-1-oxoisoindolin-4-yl)oct-7-yn-1-yl)(methyl)carbamoyl)-3-(5-methyl-1H-indazole-3-carbonyl)-6-oxodecahydropyrrolo[1,2-a][1,5]diazocin-5-yl)carbamoyl)naphthalen-2-yl)difluoromethyl)phosphoryl)bis(oxy))bis(ethane-2,1-diyl)) dibutanethioate]: the IC50 is > 3 µM at pSTAT3 (setting [1]) and < 0.1 µM on pSTAT6 (setting [2]).
In the case of `CCCOC(=O)[C@H](C)NP(=O)(Oc1ccccc1)C(F)c1ccc2ccc(C(=O)N[C@H]3CN(C(=O)c4n[nH]c5ccc(C)cc45)CC[C@H]4CC[C@@H](C(=O)N(C)CCCCCCC#Cc5cccc6c5CN(C5CCC(=O)NC5=O)C6=O)N4C3=O)cc2c1` (stereo partly drawn) [Compound 13, propyl (((7-(((5S,8S,10aR)-8-((8-(2-(2,6-dioxopiperidin-3-yl)-1-oxoisoindolin-4-yl)oct-7-yn-1-yl)(methyl)carbamoyl)-3-(5-methyl-1H-indazole-3-carbonyl)-6-oxodecahydropyrrolo[1,2-a][1,5]diazocin-5-yl)carbamoyl)naphthalen-2-yl)fluoromethyl)(phenoxy)phosphoryl)-L-alaninate], the IC50 on pSTAT3 (setting [1]) and at pSTAT6 (setting [2]) was > 3 µM throughout.
Consider `Cc1ccc2onc(C(=O)N3CC[C@H]4CC[C@@H](C(=O)N(C)CCCCCCC#Cc5cccc6c5CN(C5CCC(=O)NC5=O)C6=O)N4C(=O)[C@@H](NC(=O)c4ccc5ccc(C(F)(F)P(=O)(OCCSC(=O)CC(C)C)OCCSC(=O)CC(C)C)cc5c4)C3)c2c1` (stereo partly drawn) [Compound 21, S,S′-(((((7-(((5S,8S,10aR)-8-((8-(2-(2,6-dioxopiperidin-3-yl)-1-oxoisoindolin-4-yl)oct-7-yn-1-yl)(methyl)carbamoyl)-3-(5-methylbenzo[d]isoxazole-3-carbonyl)-6-oxodecahydropyrrolo[1,2-a][1,5]diazocin-5-yl)carbamoyl)naphthalen-2-yl)difluoromethyl)phosphoryl)bis(oxy))bis(ethane-2,1-diyl)) bis(3-methylbutanethioate)], for which the IC50 on pSTAT3 (compound 3 hrs, then 10 ng/mL IL-6 for 10 min, pY705-STAT3, read-out: pSTAT3 IC50) is > 3 µM; at pSTAT6 (compound 3 hrs, then 1 ng/mL IL-4 for 10 min, pY641-STAT6, read-out: pSTAT6 IC50), < 0.1 µM.
